The experiment concerns BT-474 xenograft tumor. As to the kind of experiment: Human breast cancer (BT-474) xenograft tumor model in nude mice. It is filed as in vivo, BALB/c female nude mice. The note with it: for Mean tumor volume (day 28) / T/C / TGI: day 28; for Mean tumor volume (day 0): day 0 (start of treatment, baseline). The protocol:
BALB/c female nude mice (provided by Shanghai Sippr-BK Lab. Animal Co., Ltd.), SPF-grade, weight 18-25 g, aged about 8 weeks (tumor-bearing). Human breast cancer BT-474 cells (ATCC) were cultured in Hybri-Care medium containing 10% fetal bovine serum, 100 U/mL penicillin and […] in vitro monolayer culture at 37° C./5% CO2. The cells were digested with trypsin-EDTA twice a week for passaging as per conventional practice. When cell confluence was 80%-90%, the cells were collected, counted, and inoculated. Estrogen tablets were implanted 3 days before cell inoculation, 0.2 mL of BT-474 cells (1×10^7) were subcutaneously inoculated on the right back of each mouse, and grouping and administration was initiated when the mean tumor volume reached 127.19 mm^3. The compound of formula I was dissolved in a vehicle: 0.01 mol/L HCl solution, 0.5% methylcellulose and deionized water were mixed well in a volume ratio of 20:30:100.
The tumor volume was calculated using the following formula: V=0.5a×b^2, where a and b represent the long diameter and short diameter of the tumor, respectively. The percentage value of TIC (%) reflects the tumor growth inhibition rate, and where T and C represent the tumor weight (tumor volume) of the treatment groups and the control group, respectively, on a certain day.
The tumor growth inhibition rate was calculated using the following formula: TGI (%)=[1−(Ti−T0)/(Vi−V0)]×100, where Ti is the mean tumor volume of a certain treatment group on a certain day, T0 is the mean tumor volume of the treatment group at the start of treatment, Vi is the mean tumor volume of the vehicle control group on a certain day (same day as Ti) and V0 is the mean tumor volume of the vehicle control group at the start of treatment. Tumor weights were measured at the end of treatment and percentage Tweight/Cweight was calculated, where Tweight and Cweight represent the tumor weights of the treatment and vehicle control groups, respectively.
On the technique in general: Xenograft models place foreign cells or tissue in a host animal.

Where [1] appears, read: 1 mg/kg orally once daily for 28 days.
Where [2] appears, read: 2 mg/kg orally once daily for 28 days.
Where [3] appears, read: 4 mg/kg orally once daily for 28 days.

From patent US20230119759A1, “PHARMACEUTICAL COMBINATION COMPRISING PYRIDINO[1,2-A]PYRIMIDINONE COMPOUND” (CHIA TAI TIANQING PHARMACEUTICAL GROUP CO., LTD., priority 2020, published 2023) come the findings set out here.

As a reminder, the T/C is the ratio of treated to control. The TGI is how far tumour growth fell short of that in controls. Higher therefore signals a stronger effect on the tumour. As for `COc1ncc(-c2ccc3ncc(OCCN(C)C)c(=O)n3c2)cc1NS(=O)(=O)c1ccc(F)cc1Cl` [Compound of formula I], the “Mean tumor volume (day 28)” value amounted to 223 ± 50 mm^3 under setting [1], 159 ± 36 mm^3 under setting [2] and 145 ± 40 mm^3 under setting [3]. The T/C by setting is: under setting [1], 56.09%; under setting [2], 40.11%; under setting [3], 36.52%. Also, the TGI was 64.56% under setting [1], 88.10% under setting [2] and 93.35% under setting [3]. Further, the “Mean tumor volume (day 0)” value reads like this: (1 mg/kg orally once daily) 127 ± 11 mm^3; (2 mg/kg orally once daily) 127 ± 11 mm^3; (4 mg/kg orally once daily) 127 ± 11 mm^3. In addition, for the setting “BT-474 xenograft tumor model, 1-4 mg/kg orally”, the “anti-tumor efficacy (in words)” value was “significant anti-tumor efficacy”.
